Laboratory results as given in article PMC7252619 (PLoS ONE, 2020).
Read-outs that look alike come from different tables or passages of the source.

Assays:
DAPK1 = biological target: T1, DAPK1 (Homo sapiens, UniProt P53355); experiment: Kinase activity test (ReactionBiology), % enzyme activity relative to DMSO; type: biochemical; conditions: DAPK1
T1 construct: purchased ReactionBiology

EPHB4 = biological target: T2, EPHB4 (Homo sapiens, UniProt P54760); experiment: as above; type: biochemical; conditions: EPHB4;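 note: EPHB4 was one of ten selected kinases in the screening panel, with enzyme activity expressed as a percentage of DMSO controls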
T2 construct: purchased ReactionBiology
T2 sequence (P54760 16-987): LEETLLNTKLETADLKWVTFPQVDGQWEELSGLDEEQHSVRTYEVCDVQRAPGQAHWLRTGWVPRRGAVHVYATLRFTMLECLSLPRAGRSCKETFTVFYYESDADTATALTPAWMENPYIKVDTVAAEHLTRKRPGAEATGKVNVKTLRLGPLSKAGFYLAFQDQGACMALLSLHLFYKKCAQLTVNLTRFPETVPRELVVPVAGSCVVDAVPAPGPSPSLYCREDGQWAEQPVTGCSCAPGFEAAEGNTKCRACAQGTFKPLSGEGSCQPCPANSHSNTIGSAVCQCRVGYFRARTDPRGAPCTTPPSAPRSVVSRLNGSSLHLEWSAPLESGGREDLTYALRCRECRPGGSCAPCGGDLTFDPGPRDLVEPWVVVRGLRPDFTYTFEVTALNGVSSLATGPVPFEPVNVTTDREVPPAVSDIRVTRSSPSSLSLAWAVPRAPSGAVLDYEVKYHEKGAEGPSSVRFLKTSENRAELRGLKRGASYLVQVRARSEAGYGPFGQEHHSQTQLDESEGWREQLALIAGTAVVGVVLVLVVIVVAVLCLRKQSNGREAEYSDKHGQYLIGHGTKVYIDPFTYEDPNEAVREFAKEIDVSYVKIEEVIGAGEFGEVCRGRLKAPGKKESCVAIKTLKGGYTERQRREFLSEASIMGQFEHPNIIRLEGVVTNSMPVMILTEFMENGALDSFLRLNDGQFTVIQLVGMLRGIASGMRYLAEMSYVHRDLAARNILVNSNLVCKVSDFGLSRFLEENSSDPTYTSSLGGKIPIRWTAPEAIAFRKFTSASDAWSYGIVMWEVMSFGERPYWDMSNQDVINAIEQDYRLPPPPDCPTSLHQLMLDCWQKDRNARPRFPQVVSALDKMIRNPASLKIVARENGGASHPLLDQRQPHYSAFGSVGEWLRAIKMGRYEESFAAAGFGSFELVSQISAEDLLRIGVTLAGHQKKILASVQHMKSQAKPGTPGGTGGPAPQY

[1] = system: human PBMCs (responder cells) with RPMI1788 stimulator cells; experiment: Mixed Lymphocyte Reaction (MLR, T cell assay), 3H-thymidine incorporation; type: cell-based; conditions: for IC50: Homo sapiens, RPMI-1788, mean of 4 independent measures, read-out: T-cell efficacy, MLR IC 50 (µM) Mean
Experimental: In order to test the efficacy and selectivity of the hit compounds on B-cells, 4 assays were performed: B-cell assay, Mixed Lymphocyte Reaction (MLR), WST-1 assay on RPMI1788 cells (B-cell line) and cytotoxicity WST-1 assay on Jurkat cells (T-cell line). Compounds were prepared as 10 mM stock solutions in dimethylsulfoxide (DMSO)and were tested at 50-10-1-0.1-0.01 and 0.001 μM in the 4 assays.
Blood samples of healthy volunteers were collected at the Red Cross of Mechelen, Belgium. Each donor consents to the use of their blood for research purposes. […] The human B cell line RPMI1788 (American Type Culture Collection, USA) and the human T cell line Jurkat (European Collection of Cell Cultures, ECACC, England) were maintained in RPMI1640 culture medium (BioWhittaker®, Lonza, Verviers, Belgium) containing 10% foetal calf serum (FCS, HyClone® Thermo Scientific, United Kingdom) and 5 μg/mL gentamicin sulphate (BioWhittaker®, Lonza, Verviers, Belgium) at 37°C and 5% CO2.
MLR assay (T cell assay): Freshly isolated human PBMCs (responder cells) were resuspended in RPMI1640 medium containing 10% FCS and 5nμg/mL gentamicin sulphate. RPMI1788 cells (stimulator cells) were inactivated by treatment with mitomycin C (Kyowa®, Takeda Belgium, Brussels, Belgium) for 20 min at 37°C, washed and finally suspended in culture medium. An amount of 100 μL of each cell suspension was mixed with 20 μL of diluted compound. The mixed cells were cultured at 37°C for 6 days in 5% CO2. DNA synthesis was assayed by the addition of 10 μCi (methyl-3H) thymidine (Perkin Elmer, Zaventem, Belgium) per well during the last 18 h in culture. Thereafter, the cells were harvested on glass filter paper and the counts per minute determined in a liquid scintillation counter (TopCount, Perkin Elmer, Zaventem, Belgium).

[2] = WST-1 cytotoxicity assay on RPMI1788 cells (B-cell line); type: cell-based, human; conditions: human, RPMI1788 cells (B-cell line), mean of 4 independent measures, read-out: Cytotoxicity, WST-1 RPMI 1788 IC 50 (µM) Mean
Experimental: (§1) Compounds were prepared as 10 mM stock solutions in dimethylsulfoxide (DMSO)and were tested at 50-10-1-0.1-0.01 and 0.001 μM in the 4 assays.
The human B cell line RPMI1788 (American Type Culture Collection, USA) and the human T cell line Jurkat (European Collection of Cell Cultures, ECACC, England) were maintained in RPMI1640 culture medium (BioWhittaker®, Lonza, Verviers, Belgium) containing 10% foetal calf serum (FCS, HyClone® Thermo Scientific, United Kingdom) and 5 μg/mL gentamicin sulphate (BioWhittaker®, Lonza, Verviers, Belgium) at 37°C and 5% CO2.
WST-1 assays on RPMI-1788 cells and Jurkat cells were performed as follows: 20 μL of test compound dilution were added to each well containing exponential growing cells and the plates were incubated for 48 h at 37°C, 5% CO2. Untreated cells and positive control (1% triton X-100, for the last 15 min) served as reference for maximum and minimum viability. At the end of incubation 100 μL of supernatant were removed and replaced by 10 μL of WST-1 solution (Cell Proliferation Reagent WST-1, Roche Applied Science).

human CD19+ B cells = experiment: B-cell assay: IgG production of ODN2006-stimulated primary B cells (AlphaLISA); type: cell-based; conditions: Homo sapiens, B-cell, 168 h; IgG production, ODN2006 0.1 μM, 7 days; mean of 4 independent experiments; read-out: B-cell IC50
Experimental: as §1
Blood samples of healthy volunteers were collected at the Red Cross of Mechelen, Belgium.
Highly purified naive peripheral human B cells were separated from fresh human PBMCs on magnetic columns by positive selection using CD19 magnetic beads according to the manufacturer’s instructions (MACS Miltenyi Biotech, Leiden, The Netherlands). […] Freshly isolated human CD19+ B cells were then plated at 25 000 cells per well in a 384-well plate (Perkin Elmer, Zaventem, Belgium) in 55 μL in DMEM medium containing 10% FCS and 5 μg/mL gentamicin sulphate. After 7 days of stimulation with 0.1 μM ODN2006 (InvivoGen, Toulouse, France), supernatant was taken for analysis of IgG using the AlphaLISA human IgG kit according to the manufacturer’s instructions (Perkin Elmer, Zaventem, Belgium).

[3] = WST-1 cytotoxicity assay on Jurkat cells (T-cell line); type: cell-based, human; conditions: human, Jurkat cells (T-cell line), mean of 4 independent measures, read-out: Cytotoxicity, WST-1 Jurkat IC 50 (µM) Mean
VEGFR2 = VEGFR2 (Homo sapiens, UniProt P35968); experiment: Kinase activity test (ReactionBiology), % enzyme activity relative to DMSO; type: biochemical; set-up: purchased ReactionBiology; conditions: VEGFR2;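 note: VEGFR2 was one member of a ten-kinase screening panel testing marketed FDA-approved drugs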
NEK2 = biological target: T3, NEK2 (Homo sapiens, UniProt P51955); experiment: as above; type: biochemical; conditions: NEK2;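 note: FDA-approved drugs chosen by structure-based repositioning, each screened at 10 or 1 µM for kinase activity, expressed as percent of DMSO controls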
T3 construct: purchased ReactionBiology
T3 sequence (P51955 1-445): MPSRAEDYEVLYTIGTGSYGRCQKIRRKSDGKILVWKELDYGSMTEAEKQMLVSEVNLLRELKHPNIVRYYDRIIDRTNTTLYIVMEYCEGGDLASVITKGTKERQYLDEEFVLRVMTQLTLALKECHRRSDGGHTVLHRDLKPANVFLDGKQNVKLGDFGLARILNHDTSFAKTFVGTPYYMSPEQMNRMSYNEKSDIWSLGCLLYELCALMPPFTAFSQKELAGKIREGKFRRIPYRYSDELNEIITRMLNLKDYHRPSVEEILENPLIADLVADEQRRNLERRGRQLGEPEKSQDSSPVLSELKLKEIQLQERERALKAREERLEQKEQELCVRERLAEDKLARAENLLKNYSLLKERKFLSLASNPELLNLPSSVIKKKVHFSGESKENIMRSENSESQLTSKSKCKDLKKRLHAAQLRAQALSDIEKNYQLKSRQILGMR

CK1d = biological target: T4, CK1d (Homo sapiens, UniProt P48730); experiment: as above; type: biochemical; conditions: CK1d
T4 construct: purchased ReactionBiology

[4] = 1 uM, Average, read-out: % Enzyme Activity (relative to DMSO controls), Average
[5] = 1 uM, replicate Data 1, read-out: % Enzyme Activity (relative to DMSO controls), Data 1
[6] = 1 uM, replicate Data 2, read-out: % Enzyme Activity (relative to DMSO controls), Data 2
[7] = 10 uM, Average, read-out: % Enzyme Activity (relative to DMSO controls), Average
[8] = 10 uM, replicate Data 1, read-out: % Enzyme Activity (relative to DMSO controls), Data 1
[9] = 10 uM, replicate Data 2, read-out: % Enzyme Activity (relative to DMSO controls), Data 2
[10] = compound 1μM, relative to DMSO controls, read-out: % Enzyme activity at 1μM
[11] = compound 10μM, relative to DMSO controls, read-out: % Enzyme activity at 10μM
[12] = Average, read-out: % Enzyme Activity (relative to DMSO controls), Average
[13] = replicate Data 1, read-out: % Enzyme Activity (relative to DMSO controls), Data 1
[14] = replicate Data 2, read-out: % Enzyme Activity (relative to DMSO controls), Data 2

T1 sequence (P53355 whole entry): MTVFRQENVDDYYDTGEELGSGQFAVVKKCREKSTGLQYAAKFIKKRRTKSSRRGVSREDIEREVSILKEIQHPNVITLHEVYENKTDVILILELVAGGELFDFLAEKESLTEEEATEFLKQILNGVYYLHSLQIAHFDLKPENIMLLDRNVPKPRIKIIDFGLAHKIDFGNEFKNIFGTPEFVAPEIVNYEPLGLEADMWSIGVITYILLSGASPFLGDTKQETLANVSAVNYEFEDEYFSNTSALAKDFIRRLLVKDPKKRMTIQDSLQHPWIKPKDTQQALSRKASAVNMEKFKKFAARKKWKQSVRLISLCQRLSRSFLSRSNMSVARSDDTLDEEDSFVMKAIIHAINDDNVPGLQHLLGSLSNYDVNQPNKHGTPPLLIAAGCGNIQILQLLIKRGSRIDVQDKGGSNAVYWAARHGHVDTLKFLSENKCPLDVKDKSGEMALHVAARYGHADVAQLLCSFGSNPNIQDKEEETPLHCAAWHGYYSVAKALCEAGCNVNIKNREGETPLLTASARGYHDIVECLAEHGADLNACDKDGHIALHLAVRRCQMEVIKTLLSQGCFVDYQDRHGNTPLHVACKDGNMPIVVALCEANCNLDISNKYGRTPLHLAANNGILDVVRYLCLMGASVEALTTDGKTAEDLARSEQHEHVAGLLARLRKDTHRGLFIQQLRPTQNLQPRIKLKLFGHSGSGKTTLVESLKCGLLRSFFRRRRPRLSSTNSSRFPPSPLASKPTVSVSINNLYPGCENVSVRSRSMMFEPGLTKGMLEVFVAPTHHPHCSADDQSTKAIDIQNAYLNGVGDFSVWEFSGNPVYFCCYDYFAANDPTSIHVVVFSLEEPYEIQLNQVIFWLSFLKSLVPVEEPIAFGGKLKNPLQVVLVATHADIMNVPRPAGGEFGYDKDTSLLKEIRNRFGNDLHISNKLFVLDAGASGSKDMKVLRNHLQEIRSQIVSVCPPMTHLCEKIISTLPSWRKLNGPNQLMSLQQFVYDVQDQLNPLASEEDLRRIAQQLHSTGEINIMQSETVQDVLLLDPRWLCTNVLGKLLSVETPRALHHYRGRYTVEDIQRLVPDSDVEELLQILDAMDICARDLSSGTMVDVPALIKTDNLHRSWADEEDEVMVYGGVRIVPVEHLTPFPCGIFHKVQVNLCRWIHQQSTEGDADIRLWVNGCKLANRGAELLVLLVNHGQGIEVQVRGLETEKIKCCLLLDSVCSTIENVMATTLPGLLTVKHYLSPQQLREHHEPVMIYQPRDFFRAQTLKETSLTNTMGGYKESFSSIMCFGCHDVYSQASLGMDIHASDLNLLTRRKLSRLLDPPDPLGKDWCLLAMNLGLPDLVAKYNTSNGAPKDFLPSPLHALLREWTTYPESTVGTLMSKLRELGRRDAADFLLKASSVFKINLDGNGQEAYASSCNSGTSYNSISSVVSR
T4 sequence (P48730 whole entry): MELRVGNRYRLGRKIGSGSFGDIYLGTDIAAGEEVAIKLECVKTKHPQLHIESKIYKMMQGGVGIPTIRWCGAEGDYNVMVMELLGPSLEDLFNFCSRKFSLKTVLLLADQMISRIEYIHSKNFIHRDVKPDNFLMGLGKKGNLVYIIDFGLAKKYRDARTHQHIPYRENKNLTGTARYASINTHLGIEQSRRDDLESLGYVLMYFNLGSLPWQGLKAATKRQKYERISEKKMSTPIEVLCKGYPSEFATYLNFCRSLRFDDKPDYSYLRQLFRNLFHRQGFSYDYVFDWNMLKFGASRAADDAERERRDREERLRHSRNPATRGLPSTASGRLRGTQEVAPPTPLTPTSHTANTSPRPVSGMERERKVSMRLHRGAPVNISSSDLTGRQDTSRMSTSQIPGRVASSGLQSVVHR
Chain of VEGFR2 (P35968 20-1356): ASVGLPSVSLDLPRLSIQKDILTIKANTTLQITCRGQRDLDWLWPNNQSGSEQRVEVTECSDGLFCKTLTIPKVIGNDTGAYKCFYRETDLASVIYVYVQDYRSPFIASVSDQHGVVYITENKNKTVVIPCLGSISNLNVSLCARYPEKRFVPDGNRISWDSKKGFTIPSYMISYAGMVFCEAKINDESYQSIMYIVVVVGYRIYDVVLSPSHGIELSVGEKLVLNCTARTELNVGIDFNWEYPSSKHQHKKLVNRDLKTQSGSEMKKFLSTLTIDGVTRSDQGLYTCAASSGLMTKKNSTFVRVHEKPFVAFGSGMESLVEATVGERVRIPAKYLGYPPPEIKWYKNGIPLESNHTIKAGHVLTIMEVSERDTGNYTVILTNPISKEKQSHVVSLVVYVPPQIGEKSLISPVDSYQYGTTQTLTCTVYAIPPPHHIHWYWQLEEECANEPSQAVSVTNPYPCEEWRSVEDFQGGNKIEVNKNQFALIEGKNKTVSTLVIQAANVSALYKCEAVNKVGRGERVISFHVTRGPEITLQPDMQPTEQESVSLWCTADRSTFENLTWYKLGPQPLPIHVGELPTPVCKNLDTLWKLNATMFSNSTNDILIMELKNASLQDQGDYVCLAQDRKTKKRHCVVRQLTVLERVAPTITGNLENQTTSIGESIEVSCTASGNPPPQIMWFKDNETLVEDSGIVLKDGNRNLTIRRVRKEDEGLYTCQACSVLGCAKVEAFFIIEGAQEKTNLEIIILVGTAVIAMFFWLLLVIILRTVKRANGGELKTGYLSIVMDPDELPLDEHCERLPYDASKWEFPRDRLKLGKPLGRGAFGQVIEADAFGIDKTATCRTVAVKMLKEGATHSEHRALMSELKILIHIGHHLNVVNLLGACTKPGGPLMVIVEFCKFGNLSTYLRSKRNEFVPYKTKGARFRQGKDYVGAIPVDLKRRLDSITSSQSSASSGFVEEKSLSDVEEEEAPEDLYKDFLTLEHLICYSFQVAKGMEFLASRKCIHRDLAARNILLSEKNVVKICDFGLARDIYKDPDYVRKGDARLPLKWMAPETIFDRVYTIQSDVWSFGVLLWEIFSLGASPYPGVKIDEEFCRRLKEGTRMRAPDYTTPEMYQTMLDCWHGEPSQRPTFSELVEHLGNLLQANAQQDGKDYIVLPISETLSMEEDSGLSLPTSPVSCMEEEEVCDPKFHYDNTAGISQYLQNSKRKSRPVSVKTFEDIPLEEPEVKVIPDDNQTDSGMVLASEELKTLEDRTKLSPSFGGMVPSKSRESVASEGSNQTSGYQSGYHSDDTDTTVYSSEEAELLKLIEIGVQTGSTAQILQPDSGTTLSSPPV

Row | Compound | remaining activity at 1 µM (DAPK1; [4]) | remaining activity at 1 µM (DAPK1; [5]) | remaining activity at 1 µM (DAPK1; [6]) | remaining activity at 10 µM (DAPK1; [7]) | remaining activity at 10 µM (DAPK1; [8]) | remaining activity at 10 µM (DAPK1; [9]) | remaining activity at 1 µM (EPHB4; [4]) | remaining activity at 1 µM (EPHB4; [5]) | remaining activity at 1 µM (EPHB4; [6]) | remaining activity at 10 µM (EPHB4; [7]) | remaining activity at 10 µM (EPHB4; [8]) | remaining activity at 10 µM (EPHB4; [9]) | IC50 [1] | IC50 at 48 h [2] | IC50 (human CD19+ B cells) | IC50 at 48 h [3] | remaining activity at 1 µM (VEGFR2; [12]) | remaining activity at 1 µM (VEGFR2; [13]) | remaining activity at 1 µM (VEGFR2; [14]) | remaining activity at 10 µM (VEGFR2; [12]) | also measured
1 | C[C@]12CC[C@@H]3c4ccc(O)cc4CC[C@H]3[C@@H]1CC[C@@H]2O [Estradiol, reference compound] | 111% | 98% | 123% | 69% | 68.3% | 69.7% | 100% | 99.8% | 100% | 91.9% | 91.3% | 92.5% | 21.2 µM | 35.9 µM | 33.9 µM | 19.5 µM | 115% | 115% | 115% | 105% | remaining activity at 1 µM (DAPK1; [10]): 111%; remaining activity at 10 µM (DAPK1; [11]): 69%; Selectivity Index (SI) MLR/B-cell ([1]; ratio of IC50 values): 0.63; remaining activity at 10 µM (VEGFR2; [13]): 106%; remaining activity at 10 µM (VEGFR2; [14]): 103%; remaining activity at 1 µM (NEK2; [12]): 92.1%; remaining activity at 1 µM (NEK2; [13]): 95.7%; remaining activity at 1 µM (NEK2; [14]): 88.5%; remaining activity at 10 µM (NEK2; [12]): 89%; remaining activity at 10 µM (NEK2; [13]): 94.9%; remaining activity at 10 µM (NEK2; [14]): 83%; remaining activity at 1 µM (CK1d; [12]): 101%; remaining activity at 1 µM (CK1d; [13]): 99.6%; remaining activity at 1 µM (CK1d; [14]): 102%; remaining activity at 10 µM (CK1d; [12]): 96.5%; remaining activity at 10 µM (CK1d; [13]): 98.7%; remaining activity at 10 µM (CK1d; [14]): 94.2%
2 | NC(=O)c1cccnc1 [Niacinamide, reference compound] | 111% | 112% | 110% | 100% | 97.7% | 103% | 69.3% | 69% | 69.6% | 69.7% | 68.3% | 71.1% | > 50 µM | > 50 µM | > 50 µM | > 50 µM | 96.4% | 97.5% | 95.4% | 95.7% | remaining activity at 1 µM (EPHB4; [10]): 69.3%; remaining activity at 10 µM (EPHB4; [11]): 69.7%; remaining activity at 10 µM (VEGFR2; [13]): 90.6%; remaining activity at 10 µM (VEGFR2; [14]): 101%; remaining activity at 1 µM (NEK2; [12]): 87.3%; remaining activity at 1 µM (NEK2; [13]): 81%; remaining activity at 1 µM (NEK2; [14]): 93.6%; remaining activity at 10 µM (NEK2; [12]): 76.4%; remaining activity at 10 µM (NEK2; [13]): 65%; remaining activity at 10 µM (NEK2; [14]): 87.8%; remaining activity at 1 µM (CK1d; [12]): 113%; remaining activity at 1 µM (CK1d; [13]): 107%; remaining activity at 1 µM (CK1d; [14]): 119%; remaining activity at 10 µM (CK1d; [12]): 101%; remaining activity at 10 µM (CK1d; [13]): 97.9%; remaining activity at 10 µM (CK1d; [14]): 105%
